We go through one molecule from PMC9289467, “A Novel Multifunctional 5,6-Dimethoxy-Indanone-Chalcone-Carbamate Hybrids Alleviates Cognitive Decline in Alzheimer’s Disease by Dual Inhibition of Acetylcholinesterase and Inflammation” (Frontiers in Aging Neuroscience, 2022).

For one assay, the system named is GFAP positive astrocytes. Kind of assay: GFAP immunohistochemistry, Sholl analysis of astrocytes, APP/PS1 mice. Conditions: AP5 40 mg/kg once daily 5 months. Type of assay: in vivo. The procedure:
(§1) APP/PS1 mice of ages 6 months were randomly divided into vehicle (APP/PS1, n = 10) and treatment groups (AP5, n = 10), which were intragastrically administered with AP5 (40 mg/kg) once daily for consecutive 5 months. AP5 was dissolved in distilled water containing 1% sodium carboxymethyl cellulose.
(§2) The fixed hemibrains were paraffin-embedded and sectioned in the coronal plane. The slices were deparaffinized with xylene and rehydrated by a series of gradient alcohols. Antigen retrieval through microwave boiling was performed with 10 mM sodium citrate solution at pH 6.0. The slices were cooled down to room temperature and then rinsed in PBS solution. Then the slices were incubated in 10% goat serum blocking solution for 1 h followed by primary antibodies overnight at 4°C. The next day, the slides were labeled with biotinylated or fluorescent secondary antibodies. Slices were washed three times with PBS before being mounted. Images were captured using a SpinSR10 scanner (Olympus, Tokyo, Japan). […]
(§3) After deparaffinization and antigen retrieval, the sections were incubated with 0.3% hydrogen peroxide (H2O2) to inhibit endogenous peroxidase activity for 20 min and blocked by goat serum for 30 min at37°C. Slides were subsequently incubated overnight with specific primary antibodies: anti-Iba1(1:100, ab178847, Abcam, Cambridge, UK) or anti-GFAP (1:100, bs-0199R, Bioss) at4 °C. […]

Another assay has as its system Iba1+ microglia. Kind of assay: Iba1 immunohistochemistry, microglia morphology, APP/PS1 mice. Type of assay: in vivo. To be noted: AP5 40 mg/kg once daily 5 months. The procedure: as §1, §2, §3
The test system of assay [1] is spatial recognition memory. Description: Y-maze. Type of assay: in vivo. To be noted: after training for 3 h, relative to APP/PS1 mice. On the procedure:
as §1
(§4) To investigate whether AP5 treatment plays a key role in cognition improvement of APP/PS1 mice models, the five different behavioral tests were sequentially carried out in the following order: open field, novel object recognition task, spatial object-location task, Y-maze, and Morris water maze (MWM). AP5 was also administered daily during the test periods. […]
For the spatial object location task (an object moved to a new location), mice first explored the two objects placed in two corners of the open field for 5 min in training period. After 1 h or 24 h, the mice received a 5 min retention trial with a new spatial configuration with an object moved from one corner to the opposite corner of the open field.The discrimination index was calculated and defined as: (time spent exploring the displaced object-time spent exploring nondisplaced objects) / total exploration time for the two objects during the 5 min retention trial. […]
guided to platform and allowed to stay on it for 30 s. The time (escape latency) for each mouse to find the way and reach the target platform was analyzed. […]

The next assay relates to recognition memory. Kind of assay: Novel object recognition task. Type of assay: in vivo, APP/PS1 mice. The procedure:
as §1, §4
To study the kinetics of Aβ-AChE fibril complex formation, 10 μM Aβ was mixed with AChE (R005282, Roche, Basel, Switzerland) and different concentrations AP5 and incubated with 10 μM ThT and 50 mM glycine-NaOH (pH 8.5) at 37°C, the ThT fluorescence was continually measured for 24 h at 30 min intervals. […] Fluorescence emission at485 nm was measured on a Spectra MAX GeminiXS fluorometerat an excitation wavelength of 450 nm. […]
To assess locomotor activity, mice were individually tested in an open-field box (38 cm × 38 cm × 25 cm). The movement of the mouse was tracked for 5 min with open fieldvideo analysis system, and the total move distances was automatically recorded as adirect measure of locomotor activity. […]

The test system of the next assay is Aβ. Kind of assay: MOAB-2 immunofluorescence of Aβ, APP/PS1 mice. Conditions: cortex and hippocampus; AP5 40 mg/kg once daily 5 months. Type of assay: in vivo. The procedure: as §1, §2
Cambridge, UK) or anti-GFAP (1:100, bs-0199R, Bioss) at4 °C. After being washed with PBS, slides were treated with a biotinylated secondary antibody for 30 min and with streptavidin-peroxidase complex for another 30 min at 37°C. Immunostaining was visualized with 3,3′-diaminobenzidine (DAB, ZL1-9018, Zhongshan Jinqiao, Beijing, China ).The images were acquired using a Nikon microscope (Nikon, […]

Regarding `CCN(C)C(=O)Oc1cccc(/C=C2\Cc3cc(OC)c(OC)cc3C2=O)c1` [AP5, (E)-3-((5,6-dimethoxy-1-oxo-1,3-dihydro-2H-inden-2-ylidene)-methyl)phenylethyl(methyl)carbamate], the “reactive phenotypes of astrocytes (ramification index, sum of intersects)” value with GFAP positive astrocytes is reported as “attenuated”. Also, in the assay on Iba1+ microglia, the “proportion of activated microglia phenotype” value is “marked decrease”. In addition, in assay [1], the preference index result is listed as “marked elevation”. For the same molecule, the “discrimination index, novel object recognition” value is “significantly higher” with recognition memory (at 1 h, vs APP/PS1 mice) and “significantly better” with recognition memory (at 24 h, vs APP/PS1 mice without treatment). For the same molecule, in the assay on Aβ, the “area occupied by unaggregated and aggregated Aβ (MOAB-2)” value was “also decreased”.
